Source: ChEMBL document CHEMBL4814018, “Rationally designed TNF-α inhibitors: Identification of promising cytotoxic agents” (Bioorg Med Chem Lett, 2021)
The source made the active and inactive calls. No cut-off for these calls is given here.

Key:
SR [1] = experiment: Growth inhibition of human SR cells at 10 uM incubated for 48 hrs by sulforhodamine B assay relative to control; assay type: functional; conditions: read-out: GI
SK-MEL-2 [2] = experiment: Growth inhibition of human SK-MEL-2 cells at 10 uM incubated for 48 hrs by sulforhodamine B assay relative to control; assay type: functional; conditions: read-out: GI
HCT-116 [3] = experiment: Growth inhibition of human HCT-116 cells incubated for 48 hrs by sulforhodamine B assay; assay type: functional
UO-31 [4] = experiment: Growth inhibition of human UO-31 cells incubated for 48 hrs by sulforhodamine B assay; assay type: functional
SK-OV-3 [5] = experiment: Growth inhibition of human SK-OV-3 cells incubated for 48 hrs by sulforhodamine B assay; assay type: functional
UACC-257 [6] = experiment: Growth inhibition of human UACC-257 cells incubated for 48 hrs by sulforhodamine B assay; assay type: functional
RPMI-8226 [7] = experiment: Growth inhibition of human RPMI8226 cells at 10 uM incubated for 48 hrs by sulforhodamine B assay relative to control; assay type: functional; conditions: read-out: GI
RPMI-8226 [8] = experiment: Growth inhibition of human RPMI-8226 cells incubated for 48 hrs by sulforhodamine B assay; assay type: functional; conditions: dose 10 µM
[9] = Therapeutic index, ratio of LC50 for human Panel NCI-60 (60 carcinoma cell lines) to GI50 for human Panel NCI-60 (60 carcinoma cell lines); assay type: functional
HOP-62 [10] = experiment: Growth inhibition of human HOP-62 cells incubated for 48 hrs by sulforhodamine B assay; assay type: functional
TK-10 [11] = experiment: Growth inhibition of human TK-10 cells at 10 uM incubated for 48 hrs by sulforhodamine B assay relative to control; assay type: functional; conditions: read-out: GI
BV-2 [12] = experiment: Antiinflammatory activity against mouse BV2 cells assessed as decrease in LPS-induced NO production at 1 to 5 uM pretreated with compound followed by LPS stimulation incubated for 4 to 48 hrs by enzyme immunoassay; assay type: functional, cell-based; conditions: dose 1-5 µM, time 4-48 hrs
MCF7 [13] = experiment: Growth inhibition of human MCF7 cells at 10 uM incubated for 48 hrs by sulforhodamine B assay relative to control; assay type: functional; conditions: read-out: GI
MDA-MB-468 [14] = experiment: Growth inhibition of human MDA-MB-468 cells incubated for 48 hrs by sulforhodamine B assay; assay type: functional
UACC-257 [15] = experiment: Growth inhibition of human UACC-257 cells at 10 uM incubated for 48 hrs by sulforhodamine B assay relative to control; assay type: functional; conditions: read-out: GI
CAKI-1 [16] = experiment: Growth inhibition of human CAKI-1 cells at 10 uM incubated for 48 hrs by sulforhodamine B assay relative to control; assay type: functional; conditions: read-out: GI
NCI-H460 [17] = experiment: Growth inhibition of human NCI-H460 cells incubated for 48 hrs by sulforhodamine B assay; assay type: functional
[18] = tested on: Panel NCI-60 (60 carcinoma cell lines); experiment: Growth inhibition of human Panel NCI-60 (60 carcinoma cell lines) incubated for 48 hrs by sulforhodamine B assay; assay type: functional
SR [19] = experiment: Growth inhibition of human SR cells incubated for 48 hrs by sulforhodamine B assay; assay type: functional
SW-620 [20] = experiment: Growth inhibition of human SW-620 cells incubated for 48 hrs by sulforhodamine B assay; assay type: functional
K562 [21] = experiment: Growth inhibition of human K562 cells incubated for 48 hrs by sulforhodamine B assay; assay type: functional
UACC-62 [22] = experiment: Growth inhibition of human UACC-62 cells at 10 uM incubated for 48 hrs by sulforhodamine B assay relative to control; assay type: functional; conditions: read-out: GI
MCF7 [23] = experiment: Growth inhibition of human MCF7 cells incubated for 48 hrs by sulforhodamine B assay; assay type: functional
MDA-MB-468 [24] = experiment: Growth inhibition of human MDA-MB-468 cells at 10 uM incubated for 48 hrs by sulforhodamine B assay relative to control; assay type: functional; conditions: read-out: GI
SK-MEL-2 [25] = experiment: Growth inhibition of human SK-MEL-2 cells incubated for 48 hrs by sulforhodamine B assay; assay type: functional
OVCAR-5 [26] = experiment: Growth inhibition of human OVCAR-5 cells at 10 uM incubated for 48 hrs by sulforhodamine B assay relative to control; assay type: functional; conditions: read-out: GI
IGROV-1 [27] = experiment: Growth inhibition of human IGROV-1 cells incubated for 48 hrs by sulforhodamine B assay; assay type: functional
OVCAR-3 [28] = experiment: Growth inhibition of human OVCAR-3 cells at 10 uM incubated for 48 hrs by sulforhodamine B assay relative to control; assay type: functional; conditions: read-out: GI
HOP-92 [29] = experiment: Growth inhibition of human HOP-92 cells incubated for 48 hrs by sulforhodamine B assay; assay type: functional
BV-2 [30] = experiment: Antiinflammatory activity against mouse BV2 cells assessed as inhibition of LPS-induced TNFalpha production at 1 uM by enzyme immunoassay; assay type: functional; set-up: scale not given: the % may be the effect or the level left
U-251 [31] = experiment: Growth inhibition of human U-251 cells incubated for 48 hrs by sulforhodamine B assay; assay type: functional
CAKI-1 [32] = experiment: Growth inhibition of human CAKI-1 cells incubated for 48 hrs by sulforhodamine B assay; assay type: functional
OVCAR-4 [33] = experiment: Growth inhibition of human OVCAR-4 cells at 10 uM incubated for 48 hrs by sulforhodamine B assay relative to control; assay type: functional; conditions: read-out: GI
OVCAR-3 [34] = experiment: Growth inhibition of human OVCAR-3 cells incubated for 48 hrs by sulforhodamine B assay; assay type: functional
SF-295 [35] = experiment: Growth inhibition of human SF-295 cells incubated for 48 hrs by sulforhodamine B assay; assay type: functional
NCI-H460 [36] = experiment: Growth inhibition of human NCI-H460 cells at 10 uM incubated for 48 hrs by sulforhodamine B assay relative to control; assay type: functional; conditions: read-out: GI
MDA-MB-231 [37] = experiment: Growth inhibition of human MDA-MB-231 cells incubated for 48 hrs by sulforhodamine B assay; assay type: functional
IGROV-1 [38] = experiment: Growth inhibition of human IGROV-1 cells at 10 uM incubated for 48 hrs by sulforhodamine B assay relative to control; assay type: functional; conditions: read-out: GI
BV-2 [39] = experiment: Antiinflammatory activity against mouse BV2 cells assessed as reduction in LPS-induced IL6 production at 1 uM by enzyme immunoassay; assay type: functional, cell-based
UO-31 [40] = experiment: Growth inhibition of human UO-31 cells at 10 uM incubated for 48 hrs by sulforhodamine B assay relative to control; assay type: functional; conditions: read-out: GI
SF-295 [41] = experiment: Growth inhibition of human SF-295 cells at 10 uM incubated for 48 hrs by sulforhodamine B assay relative to control; assay type: functional; conditions: read-out: GI
A498 [42] = experiment: Growth inhibition of human A498 cells incubated for 48 hrs by sulforhodamine B assay; assay type: functional
U-251 [43] = experiment: Growth inhibition of human U-251 cells at 10 uM incubated for 48 hrs by sulforhodamine B assay relative to control; assay type: functional; conditions: read-out: GI
HOP-92 [44] = experiment: Growth inhibition of human HOP-92 cells at 10 uM incubated for 48 hrs by sulforhodamine B assay relative to control; assay type: functional; conditions: read-out: GI
NCI-H226 [45] = experiment: Growth inhibition of human NCI-H226 cells at 10 uM incubated for 48 hrs by sulforhodamine B assay relative to control; assay type: functional; conditions: read-out: GI
T47D [46] = experiment: Growth inhibition of human T47D cells incubated for 48 hrs by sulforhodamine B assay; assay type: functional
BV-2 [47] = experiment: Cytotoxicity against mouse BV2 cells incubated for 48 hrs by MTT assay; assay type: cell-based; conditions: BV-2, 48 h
SK-OV-3 [48] = experiment: Growth inhibition of human SK-OV-3 cells at 10 uM incubated for 48 hrs by sulforhodamine B assay relative to control; assay type: functional; conditions: read-out: GI
TK-10 [49] = experiment: Growth inhibition of human TK-10 cells incubated for 48 hrs by sulforhodamine B assay; assay type: functional
T47D [50] = experiment: Growth inhibition of human T47D cells at 10 uM incubated for 48 hrs by sulforhodamine B assay relative to control; assay type: functional; conditions: read-out: GI
A498 [51] = experiment: Growth inhibition of human A498 cells at 10 uM incubated for 48 hrs by sulforhodamine B assay relative to control; assay type: functional; conditions: read-out: GI
HCT-116 [52] = experiment: Growth inhibition of human HCT-116 cells at 10 uM incubated for 48 hrs by sulforhodamine B assay relative to control; assay type: functional; conditions: read-out: GI
SW-620 [53] = experiment: Growth inhibition of human SW-620 cells at 10 uM incubated for 48 hrs by sulforhodamine B assay relative to control; assay type: functional; conditions: read-out: GI
UACC-62 [54] = experiment: Growth inhibition of human UACC-62 cells incubated for 48 hrs by sulforhodamine B assay; assay type: functional
OVCAR-4 [55] = experiment: Growth inhibition of human OVCAR-4 cells incubated for 48 hrs by sulforhodamine B assay; assay type: functional
OVCAR-5 [56] = experiment: Growth inhibition of human OVCAR-5 cells incubated for 48 hrs by sulforhodamine B assay; assay type: functional
K562 [57] = experiment: Growth inhibition of human K562 cells at 10 uM incubated for 48 hrs by sulforhodamine B assay relative to control; assay type: functional; conditions: read-out: GI
HOP-62 [58] = experiment: Growth inhibition of human HOP-62 cells at 10 uM incubated for 48 hrs by sulforhodamine B assay relative to control; assay type: functional; conditions: read-out: GI
NCI-H226 [59] = experiment: Growth inhibition of human NCI-H226 cells incubated for 48 hrs by sulforhodamine B assay; assay type: functional
MDA-MB-231 [60] = experiment: Growth inhibition of human MDA-MB-231 cells at 10 uM incubated for 48 hrs by sulforhodamine B assay relative to control; assay type: functional; conditions: read-out: GI
[61] = read-out: LC50 (the source's name)

O=C1COCCN1c1ccc(NCc2cn(Cc3ccc(Cl)cc3)c3ccccc23)cc1
inhibition of growth at 10 µM (SR [1]): 87% | inhibition of growth at 10 µM (SK-MEL-2 [2]): 89% | GI50 (HCT-116 [3]): 0.24 µM | GI50 (UO-31 [4]): 2.08 µM | GI50 (SK-OV-3 [5]): 2.29 µM | GI50 (UACC-257 [6]): 0.27 µM | inhibition of growth at 10 µM (RPMI-8226 [7]): 95% | GI50 (RPMI-8226 [8]): 2.1 µM | TI [9]: 34 | GI50 (HOP-62 [10]): 1 µM | inhibition of growth at 10 µM (TK-10 [11]): 100% | Activity (BV-2 [12]): Active | inhibition of growth at 10 µM (MCF7 [13]): 96% | GI50 (MDA-MB-468 [14]): 0.1 µM | CC50 (MDA-MB-468 [14]; [61]): 0.8 µM | inhibition of growth at 10 µM (UACC-257 [15]): 100% | inhibition of growth at 10 µM (CAKI-1 [16]): 100% | GI50 (NCI-H460 [17]): 0.26 µM | GI50 [18]: 2.09 µM | TGI [18]: 25.1 µM | CC50 [18, 61]: 70.8 µM | GI50 (SR [19]): 3 µM | GI50 (SW-620 [20]): 2.2 µM | GI50 (K562 [21]): 1.8 µM | inhibition of growth at 10 µM (UACC-62 [22]): 100% | GI50 (MCF7 [23]): 0.29 µM | inhibition of growth at 10 µM (MDA-MB-468 [24]): 100% | GI50 (SK-MEL-2 [25]): 2.18 µM | inhibition of growth at 10 µM (OVCAR-5 [26]): 100% | GI50 (IGROV-1 [27]): 0.25 µM | inhibition of growth at 10 µM (OVCAR-3 [28]): 96% | GI50 (HOP-92 [29]): 1.6 µM | Activity (BV-2 [30]): 75% | GI50 (U-251 [31]): 1.2 µM | GI50 (CAKI-1 [32]): 0.05 µM | CC50 (CAKI-1 [32]; [61]): > 100 µM | inhibition of growth at 10 µM (OVCAR-4 [33]): 94% | GI50 (OVCAR-3 [34]): 1.2 µM | GI50 (SF-295 [35]): 1.8 µM | inhibition of growth at 10 µM (NCI-H460 [36]): 93% | GI50 (MDA-MB-231 [37]): 4.5 µM | inhibition of growth at 10 µM (IGROV-1 [38]): 100% | Activity (BV-2 [39]): Active | inhibition of growth at 10 µM (UO-31 [40]): 92% | inhibition of growth at 10 µM (SF-295 [41]): 85% | GI50 (A498 [42]): 0.03 µM | CC50 (A498 [42]; [61]): 0.4 µM | inhibition of growth at 10 µM (U-251 [43]): 89% | inhibition of growth at 10 µM (HOP-92 [44]): 90% | inhibition of growth at 10 µM (NCI-H226 [45]): 93% | GI50 (T47D [46]): 0.26 µM | IC50 (BV-2 [47]): > 10 µM | inhibition of growth at 10 µM (SK-OV-3 [48]): 91% | GI50 (TK-10 [49]): 0.14 µM | CC50 (TK-10 [49]; [61]): > 100 µM | inhibition of growth at 10 µM (T47D [50]): 95% | inhibition of growth at 10 µM (A498 [51]): 100% | inhibition of growth at 10 µM (HCT-116 [52]): 96% | inhibition of growth at 10 µM (SW-620 [53]): 73% | GI50 (UACC-62 [54]): 0.39 µM | GI50 (OVCAR-4 [55]): 0.48 µM | GI50 (OVCAR-5 [56]): 0.18 µM | CC50 (OVCAR-5 [56]; [61]): 9.6 µM | inhibition of growth at 10 µM (K562 [57]): 94% | inhibition of growth at 10 µM (HOP-62 [58]): 83% | GI50 (NCI-H226 [59]): 0.15 µM | CC50 (NCI-H226 [59]; [61]): 3.6 µM | inhibition of growth at 10 µM (MDA-MB-231 [60]): 77%
